Here are results for two compounds from ChEMBL document CHEMBL4665806, “Structure-based optimisation of orally active & reversible MetAP-2 inhibitors maintaining a tight 'molecular budget'” (Bioorg Med Chem Lett, 2020).

Data set [1] in a line: Intrinsic clearance in rat. The format is ADME.
Data set [2] is described as follows: Intrinsic clearance in human. The format is ADME.
Data set [3] is described as follows: Chromatographic hydrophobicity index, log D of the compound at pH 7.4. The conditions noted are these: buffer. The format is physicochemical.
The test system of data set [4] is Mus musculus. Kind of data set: Antiinflammatory activity in antigen KLH-TNP- treated po dosed mouse model of B-cell adaptive immunity assessed as inhibition of secondary response administered twice daily from day 21 to day 31. Conditions: dose mg/kg 3-30, time 10.0 day. It counts as functional, organism-based.
Data set [5] deals with Mus musculus. Kind of data set: Antiinflammatory activity in antigen KLH-TNP- treated mouse model of B-cell adaptive immunity assessed as inhibition of secondary response at 10 mg/kg, po administered twice daily from day 21 to day 31 relative to control. It counts as functional. More on the design: scale not given: the % may be the effect or the level left. Conditions: time 10 day.

Data set [6] concerns Mus musculus. The data set can be described thus: Antiinflammatory activity in antigen KLH-TNP- treated mouse model of B-cell adaptive immunity assessed as inhibition of secondary response at 30 mg/kg, po administered twice daily from day 21 to day 31 relative to control. The format is functional. Also noted: scale not given: the % may be the effect or the level left. The conditions noted are these: dose 3 mg/kg; time 10 day.

Data set [7] concerns Mus musculus. Kind of data set: Antiinflammatory activity in anti-KLH treated mouse model of B-cell adaptive immunity assessed as inhibition of secondary response at […] mg/kg, po administered twice daily from day 21 to day 31 relative to control. Conditions: dose 3.0 mg/kg, time 10.0 day. It counts as functional, organism-based.
For data set [8], the target named is Methionine aminopeptidase 2 (Mus musculus, UniProt O08663). The data set can be described thus: Inhibition of MetAP2 in mouse B cells assessed as reduction in IgG secretion. The format is cell-based, B-cell.
Sequence of Methionine aminopeptidase 2 (O08663 whole entry): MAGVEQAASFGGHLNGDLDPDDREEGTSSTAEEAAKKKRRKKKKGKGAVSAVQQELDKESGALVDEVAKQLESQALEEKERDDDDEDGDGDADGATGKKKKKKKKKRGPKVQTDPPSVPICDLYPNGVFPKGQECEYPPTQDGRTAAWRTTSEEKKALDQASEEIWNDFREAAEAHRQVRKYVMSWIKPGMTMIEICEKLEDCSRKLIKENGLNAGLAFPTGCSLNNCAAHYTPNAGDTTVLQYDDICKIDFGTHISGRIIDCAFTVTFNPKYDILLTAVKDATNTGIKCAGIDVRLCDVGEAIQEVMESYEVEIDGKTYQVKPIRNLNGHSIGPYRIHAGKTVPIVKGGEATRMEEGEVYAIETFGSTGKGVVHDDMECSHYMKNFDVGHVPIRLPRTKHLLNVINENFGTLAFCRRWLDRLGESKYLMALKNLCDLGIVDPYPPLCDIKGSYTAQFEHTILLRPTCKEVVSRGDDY
Data set [9] in a line: Volume of distribution at steady state in po dosed mouse. The format is ADME, organism-based. The conditions noted are these: in vivo.
The nature of data set [10]: Half life in po dosed mouse. The format is ADME, organism-based. The conditions noted are these: in vivo.
Data set [11] in a line: Solubility of the compound. The format is physicochemical.
A short description of data set [12]: Clearance in po dosed mouse. It counts as ADME, organism-based. Conditions: in vivo.
The subject of data set [13] is Mus musculus. Kind of data set: Antiinflammatory activity in antigen KLH-TNP- treated mouse model of B-cell adaptive immunity assessed as inhibition of secondary response at 3 mg/kg, po administered twice daily from day 21 to day 31 relative to control. The format is functional. Also noted: scale not given: the % may be the effect or the level left. The conditions noted are these: time 10 day.

Data set [14] is described as follows: Oral bioavailability in mouse at 10 mg/kg. The format is ADME, organism-based. The conditions noted are these: in vivo.

Structures are written as SMILES. ≈ marks a conversion by molar mass, not a printed value. Calls of active or inactive are those of the source. No cut-off for these calls is given here.

Turning to `CC(C)Oc1cc(N2CCNCC2)ccc1-c1c(C(N)=O)[nH]c2cc(F)c(Cl)cc12`, the CLint scaled in data set [1] and in [2] was less than 1 mL/min/kg in each case. For the same compound, the chromatographic logD in [3] stood at 3.1.
With `CC(C)Oc1cc(N2CCNCC2)ccc1-c1c(C(N)=O)[nH]c2cc(F)c(F)cc12`, the Activity result in [4] is “Dose-dependent effect”; in data set [5] it was 39%; in [6], 89%; in [13] it was 15%. Besides, the result in data set [7] was Active. In addition, the IC50 in data set [8] was 0.0398 µM. In addition, the CLint scaled in data set [1] and in data set [2] was less than 1 mL/min/kg each time. In data set [9], this compound displayed a Vdss of 7.7 L/kg. This compound also gave a half-life in data set [10] of 4.5 h. Also, the solubility in data set [11] came out at 629 µg/mL (≈ 1520 µM). Further, in [12], the CL/F came to 45 mL/min/kg. Moreover, in [3], the chromatographic logD is 2.8. This compound also gave a bioavailability in data set [14] of 89%.
